From PubChem BioAssay AID2060886 (Molecular Pharmacology Branch, DTP, NCI, 2025)

System: 653999-131-R-J2-PDC complex spheroids, growth inhibition
Test: Anticancer human tumor 653999-131-R-J2-PDC patient-derived lung adenocarcinoma cell line growth inhibition [RAS]
Settings: for IC50: curve of first compound; for viability, T/C: stronger effect = lower value; active = viability on the fitted dose curve at most 10% of control; inactive = the rest
Procedure, shortened: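 Tumour cells grown as complex spheroids with HUVEC endothelial cells and mesenchymal stem cells, treated with RAS pathway inhibitor combinations. Each agent spans half-log steps from near clinical Cmax, or 10 microM where Cmax is unknown.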
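Note: spheroids exposed to the agents for seven days before the readout.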

CCN1CCN(Cc2ccc(Nc3ncc(F)c(-c4cc(F)c5nc(C)n(C(C)C)c5c4)n3)nc2)CC1 + CCn1c(-c2cccnc2C(C)OC)c2c3cc(ccc31)N1CCOC(CC(NC(=O)C(C(C)C)N(C)C(=O)C3(F)CCN(C(=O)C#CC(C)(C)N(C)C)CC3)C(=O)N3CCCC(N3)C(=O)OCC(C)(C)C2)C1
> 1000 nM: IC50 (second compound 0.000949 µM) | IC50 (second compound 0.003 µM) | IC50 (second compound 0.00949 µM) | IC50 (second compound 0.03 µM) | IC50 (second compound 0.0949 µM) | IC50 (second compound 0.3 µM)
inactive: viability, T/C (second compound 0.000949 µM, first compound 0.00316 µM) 101% | viability, T/C (second compound 0.000949 µM, first compound 0.01 µM) 87.8% | viability, T/C (second compound 0.000949 µM, first compound 0.0316 µM) 75.3% | viability, T/C (second compound 0.000949 µM, first compound 0.1 µM) 67.6% | viability, T/C (second compound 0.000949 µM, first compound 0.316 µM) 73.2% | viability, T/C (second compound 0.000949 µM, first compound 1 µM) 78.4% | viability, T/C (second compound 0.003 µM, first compound 0.00316 µM) 98.5% | viability, T/C (second compound 0.003 µM, first compound 0.01 µM) 76.9% | viability, T/C (second compound 0.003 µM, first compound 0.0316 µM) 75.5% | viability, T/C (second compound 0.003 µM, first compound 0.1 µM) 75% | viability, T/C (second compound 0.003 µM, first compound 0.316 µM) 71.8% | viability, T/C (second compound 0.003 µM, first compound 1 µM) 92.9% | viability, T/C (second compound 0.00949 µM, first compound 0.00316 µM) 105% | viability, T/C (second compound 0.00949 µM, first compound 0.01 µM) 99.5% | viability, T/C (second compound 0.00949 µM, first compound 0.0316 µM) 64.8% | viability, T/C (second compound 0.00949 µM, first compound 0.1 µM) 77.6% | viability, T/C (second compound 0.00949 µM, first compound 0.316 µM) 80% | viability, T/C (second compound 0.00949 µM, first compound 1 µM) 82.2% | viability, T/C (second compound 0.03 µM, first compound 0.00316 µM) 95.1% | viability, T/C (second compound 0.03 µM, first compound 0.01 µM) 75.7% | viability, T/C (second compound 0.03 µM, first compound 0.0316 µM) 79.2% | viability, T/C (second compound 0.03 µM, first compound 0.1 µM) 64.2% | viability, T/C (second compound 0.03 µM, first compound 0.316 µM) 89.9% | viability, T/C (second compound 0.03 µM, first compound 1 µM) 79.1% | viability, T/C (second compound 0.0949 µM, first compound 0.00316 µM) 90.9% | viability, T/C (second compound 0.0949 µM, first compound 0.01 µM) 85.6% | viability, T/C (second compound 0.0949 µM, first compound 0.0316 µM) 79.5% | viability, T/C (second compound 0.0949 µM, first compound 0.1 µM) 69.3% | viability, T/C (second compound 0.0949 µM, first compound 0.316 µM) 83.7% | viability, T/C (second compound 0.0949 µM, first compound 1 µM) 81.3% | viability, T/C (second compound 0.3 µM, first compound 0.00316 µM) 95.4% | viability, T/C (second compound 0.3 µM, first compound 0.01 µM) 81.6% | viability, T/C (second compound 0.3 µM, first compound 0.0316 µM) 73.7% | viability, T/C (second compound 0.3 µM, first compound 0.1 µM) 60.8% | viability, T/C (second compound 0.3 µM, first compound 0.316 µM) 84.6% | viability, T/C (second compound 0.3 µM, first compound 1 µM) 77.6%
